{"source": "patent US20060253079A1", "about": "“Stratum corneum piercing device” (priority 2005, published 2006)", "tested_on": "skin site on subject's forearm or face", "conditions": "for ENHANCED ACTIVE DELIVERY (HISTAMINE RESPONSE): 0.10% wt/wt histamine, visual inspection after 10 minutes; for PRESENCE OF PIH: graded visually for up to at least 3 weeks; for PRESENCE OF ERYTHEMA: 10 microliters 0.10% wt/wt histamine on treated site", "key": {"[1]": {"conditions": "test subject 1, forearm, 225 micrometer, 8 lbs/cm^2"}, "[2]": {"conditions": "test subject 2, forearm, 225 micrometer, 6 lbs/cm^2"}, "[3]": {"conditions": "test subject 4, forearm, 185 micrometer, 4.6 lbs/cm^2"}, "[4]": {"conditions": "test subject 5, forearm, 185 micrometer, 8 lbs/cm^2"}, "[5]": {"conditions": "test subject 6, forehead, 145 micrometer, 5 lbs/cm^2"}}, "note": "Where two headings read alike, the source gives them in different places."}
{"compound": "NCCc1c[nH]cn1", "note": "[histamine]", "values": [{"measurement": "skin's reaction to topically applied histamine", "setting": "control test sites: histamine solution on untreated skin sites not pierced by the microprotrusion members", "result": "did not result in erythema"}, {"measurement": "skin's reaction to topically applied histamine", "setting": "following microprotrusion treatment", "result": "manifested in erythema"}, {"measurement": "ENHANCED ACTIVE DELIVERY (HISTAMINE RESPONSE)", "setting": "[1]", "result": "Yes,"}, {"measurement": "PRESENCE OF PIH", "setting": "[1]", "result": "Yes"}, {"measurement": "PRESENCE OF ERYTHEMA", "setting": "test subject 1, forearm, microprotrusion length 225 micrometer, 8 lbs/cm^2", "result": "Present after"}, {"measurement": "ENHANCED ACTIVE DELIVERY (HISTAMINE RESPONSE)", "setting": "[2]", "result": "Yes,"}, {"measurement": "PRESENCE OF PIH", "setting": "[2]", "result": "Yes"}, {"measurement": "PRESENCE OF ERYTHEMA", "setting": "test subject 2, forearm, microprotrusion length 225 micrometer, 6 lbs/cm^2", "result": "Present after"}, {"measurement": "PRESENCE OF PIH", "setting": "test subject 3, cheek (bone), 185 micrometer, 3.2 lbs/cm^2", "result": "No"}, {"measurement": "PRESENCE OF ERYTHEMA", "setting": "test subject 3, cheek (bone), microprotrusion length 185 micrometer, 3.2 lbs/cm^2", "result": "No"}, {"measurement": "ENHANCED ACTIVE DELIVERY (HISTAMINE RESPONSE)", "setting": "[3]", "result": "Yes,"}, {"measurement": "PRESENCE OF PIH", "setting": "[3]", "result": "No"}, {"measurement": "PRESENCE OF ERYTHEMA", "setting": "test subject 4, forearm, microprotrusion length 185 micrometer, 4.6 lbs/cm^2", "result": "No"}, {"measurement": "ENHANCED ACTIVE DELIVERY (HISTAMINE RESPONSE)", "setting": "[4]", "result": "Yes,"}, {"measurement": "PRESENCE OF PIH", "setting": "[4]", "result": "Yes"}, {"measurement": "PRESENCE OF ERYTHEMA", "setting": "test subject 5, forearm, microprotrusion length 185 micrometer, 8 lbs/cm^2", "result": "Present after"}, {"measurement": "ENHANCED ACTIVE DELIVERY (HISTAMINE RESPONSE)", "setting": "[5]", "result": "Yes,"}, {"measurement": "PRESENCE OF PIH", "setting": "[5]", "result": "No"}, {"measurement": "PRESENCE OF ERYTHEMA", "setting": "test subject 6, forehead, microprotrusion length 145 micrometer, 5 lbs/cm^2", "result": "No"}]}
